Assay results: ChEMBL document CHEMBL3045146, “Synthesis and biological activity of novel phenyltriazolinone derivatives” (2010)
Calls of active or inactive are those of the source. The calls are words filed in the database; no cut-off is given here.

What was measured:
[1] = tested on: Amaranthus retroflexus; assay: Herbicidal activity against Amaranthus retroflexus assessed as growth inhibition at 150 g/ha; format: functional, organism-based
[2] = tested on: Digitaria sanguinalis; assay: Herbicidal activity against Digitaria sanguinalis (hairy crabgrass) assessed as growth inhibition at 150 g/ha; format: functional, organism-based
[3] = tested on: Eclipta prostrata; assay: Herbicidal activity against Eclipta prostrata assessed as growth inhibition at 150 g/ha; format: functional; conditions: for inhibition of growth at 150 g/ha: read-out: GI
[4] = tested on: Echinochloa crus-galli; assay: Herbicidal activity against Echinochloa crus-galli (barnyard grass) assessed as growth inhibition at 150 g/ha; format: functional, organism-based
[5] = tested on: Brassica juncea; assay: Herbicidal activity against Brassica juncea assessed as growth inhibition at 150 g/ha; format: functional, organism-based
[6] = tested on: Poa annua; assay: Herbicidal activity against Poa annua assessed as growth inhibition at 150 g/ha; format: functional, organism-based

CO/C=C(/C(=O)OC)c1ccccc1Cn1c(C)nn(-c2cc(NS(=O)(=O)c3ccccc3)c(Cl)cc2Cl)c1=O was tested, and the “growth inhibition (GI)” value [1] was “inactive”, the “growth inhibition (GI)” value [2] was “inactive” and the “growth inhibition (GI)” value [3] was “inactive”. For the same compound, the “growth inhibition (GI)” value [4] was “inactive”, the “growth inhibition (GI)” value [5] was “inactive” and the “growth inhibition (GI)” value [6] was “inactive”.
With CO/N=C(/C(=O)OC)c1ccccc1Cn1c(C)nn(-c2cc(NS(C)(=O)=O)c(Cl)cc2F)c1=O the “growth inhibition (GI)” value [1] was “inactive”, the “growth inhibition (GI)” value [2] was “inactive” and the “growth inhibition (GI)” value [3] was “inactive”. For the same compound, the “growth inhibition (GI)” value [4] was “inactive”, the “growth inhibition (GI)” value [5] was “inactive” and the “growth inhibition (GI)” value [6] was “inactive”.
In the case of CCS(=O)(=O)Nc1cc(-n2nc(C)n(Cc3ccccc3N(OC)C(=O)OC)c2=O)c(F)cc1Cl, the “growth inhibition (GI)” value [1] is reported as “inactive”, the “growth inhibition (GI)” value [2] is reported as “inactive” and the inhibition of growth at 150 g/ha [3] is reported as 70%. The “growth inhibition (GI)” value [4] was “inactive”, the “growth inhibition (GI)” value [5] was “inactive” and the “growth inhibition (GI)” value [6] was “inactive”.
CCS(=O)(=O)Nc1cc(-n2nc(C)n(Cc3ccccc3N(OC)C(=O)OC)c2=O)c(Cl)cc1Cl was tested, and the “growth inhibition (GI)” value [1] was “inactive”, the “growth inhibition (GI)” value [2] was “Active” and the “growth inhibition (GI)” value [3] was “inactive”. The “growth inhibition (GI)” value [4] was “Active”, the “growth inhibition (GI)” value [5] was “inactive” and the “growth inhibition (GI)” value [6] was “Active”.
In the case of COC(=O)N(OC)c1ccccc1Cn1c(C)nn(-c2cc(NS(=O)(=O)c3ccccc3)c(Cl)cc2F)c1=O, the “growth inhibition (GI)” value [1] is reported as “inactive”, the “growth inhibition (GI)” value [2] is reported as “inactive” and the “growth inhibition (GI)” value [3] is reported as “inactive”. For the same compound, the “growth inhibition (GI)” value [4] was “inactive”, the “growth inhibition (GI)” value [5] was “inactive” and the “growth inhibition (GI)” value [6] was “inactive”.
CO/N=C(/C(=O)OC)c1ccccc1Cn1c(C)nn(-c2cc(NS(C)(=O)=O)c(Cl)cc2Cl)c1=O was tested, and the “growth inhibition (GI)” value [1] was “inactive”, the “growth inhibition (GI)” value [2] was “inactive” and the “growth inhibition (GI)” value [3] was “inactive”. For the same compound, the “growth inhibition (GI)” value [4] was “inactive”, the “growth inhibition (GI)” value [5] was “inactive” and the “growth inhibition (GI)” value [6] was “inactive”.
For CCS(=O)(=O)Nc1cc(-n2nc(C)n(Cc3ccccc3/C(=C\OC)C(=O)OC)c2=O)c(F)cc1Cl, the “growth inhibition (GI)” value [1] was “inactive”, the “growth inhibition (GI)” value [2] was “inactive” and the “growth inhibition (GI)” value [3] was “inactive”. For the same compound, the “growth inhibition (GI)” value [4] was “inactive”, the “growth inhibition (GI)” value [5] was “inactive” and the “growth inhibition (GI)” value [6] was “inactive”.
With CO/C=C(/C(=O)OC)c1ccccc1Cn1c(C)nn(-c2cc(NS(C)(=O)=O)c(Cl)cc2Cl)c1=O the “growth inhibition (GI)” value [1] was “inactive”, the “growth inhibition (GI)” value [2] was “inactive” and the “growth inhibition (GI)” value [3] was “inactive”. For the same compound, the “growth inhibition (GI)” value [4] was “inactive”, the “growth inhibition (GI)” value [5] was “inactive” and the “growth inhibition (GI)” value [6] was “inactive”.
With CO/C=C(/C(=O)OC)c1ccccc1Cn1c(C)nn(-c2cc(NS(C)(=O)=O)c(Cl)cc2F)c1=O the “growth inhibition (GI)” value [1] was “inactive”, the “growth inhibition (GI)” value [2] was “inactive” and the “growth inhibition (GI)” value [3] was “inactive”. The “growth inhibition (GI)” value [4] was “inactive”, the “growth inhibition (GI)” value [5] was “inactive” and the “growth inhibition (GI)” value [6] was “inactive”.
In the case of CCS(=O)(=O)Nc1cc(-n2nc(C)n(Cc3ccccc3/C(=N\OC)C(=O)OC)c2=O)c(Cl)cc1Cl, the “growth inhibition (GI)” value [1] is reported as “inactive”, the “growth inhibition (GI)” value [2] is reported as “inactive” and the “growth inhibition (GI)” value [3] is reported as “inactive”. For the same compound, the “growth inhibition (GI)” value [4] was “inactive”, the “growth inhibition (GI)” value [5] was “inactive” and the “growth inhibition (GI)” value [6] was “inactive”.
For CO/N=C(/C(=O)OC)c1ccccc1Cn1c(C)nn(-c2cc(NS(=O)(=O)c3ccccc3)c(Cl)cc2F)c1=O, the “growth inhibition (GI)” value [1] was “inactive”, the “growth inhibition (GI)” value [2] was “inactive” and the “growth inhibition (GI)” value [3] was “inactive”. For the same compound, the “growth inhibition (GI)” value [4] was “inactive”, the “growth inhibition (GI)” value [5] was “inactive” and the “growth inhibition (GI)” value [6] was “inactive”.
In the case of CO/N=C(/C(=O)OC)c1ccccc1Cn1c(C)nn(-c2cc(NS(=O)(=O)c3ccccc3)c(Cl)cc2Cl)c1=O, the “growth inhibition (GI)” value [1] is reported as “inactive”, the “growth inhibition (GI)” value [2] is reported as “inactive” and the inhibition of growth at 150 g/ha [3] is reported as 70%. The “growth inhibition (GI)” value [4] was “inactive”, the “growth inhibition (GI)” value [5] was “inactive” and the “growth inhibition (GI)” value [6] was “inactive”.
With CCS(=O)(=O)Nc1cc(-n2nc(C)n(Cc3ccccc3/C(=C\OC)C(=O)OC)c2=O)c(Cl)cc1Cl the “growth inhibition (GI)” value [1] was “inactive”, the “growth inhibition (GI)” value [2] was “inactive” and the “growth inhibition (GI)” value [3] was “inactive”. For the same compound, the “growth inhibition (GI)” value [4] was “inactive”, the “growth inhibition (GI)” value [5] was “inactive” and the “growth inhibition (GI)” value [6] was “inactive”.
For COC(=O)N(OC)c1ccccc1Cn1c(C)nn(-c2cc(NS(C)(=O)=O)c(Cl)cc2F)c1=O, the “growth inhibition (GI)” value [1] was “inactive”, the “growth inhibition (GI)” value [2] was “inactive” and the inhibition of growth at 150 g/ha [3] was 70%. For the same compound, the “growth inhibition (GI)” value [4] was “inactive”, the “growth inhibition (GI)” value [5] was “inactive” and the “growth inhibition (GI)” value [6] was “inactive”.
For CO/C=C(/C(=O)OC)c1ccccc1Cn1c(C)nn(-c2cc(NS(=O)(=O)c3ccccc3)c(Cl)cc2F)c1=O, the “growth inhibition (GI)” value [1] was “inactive”, the “growth inhibition (GI)” value [2] was “inactive” and the “growth inhibition (GI)” value [3] was “inactive”. For the same compound, the “growth inhibition (GI)” value [4] was “inactive”, the “growth inhibition (GI)” value [5] was “inactive” and the “growth inhibition (GI)” value [6] was “inactive”.
With COC(=O)N(OC)c1ccccc1Cn1c(C)nn(-c2cc(NS(C)(=O)=O)c(Cl)cc2Cl)c1=O the “growth inhibition (GI)” value [1] was “inactive”, the “growth inhibition (GI)” value [2] was “inactive” and the “growth inhibition (GI)” value [3] was “inactive”. For the same compound, the “growth inhibition (GI)” value [4] was “inactive”, the “growth inhibition (GI)” value [5] was “inactive” and the “growth inhibition (GI)” value [6] was “inactive”.
In the case of COC(=O)N(OC)c1ccccc1Cn1c(C)nn(-c2cc(NS(=O)(=O)c3ccccc3)c(Cl)cc2Cl)c1=O, the “growth inhibition (GI)” value [1] is reported as “inactive”, the “growth inhibition (GI)” value [2] is reported as “Active” and the “growth inhibition (GI)” value [3] is reported as “inactive”. The “growth inhibition (GI)” value [4] was “Active”, the “growth inhibition (GI)” value [5] was “inactive” and the “growth inhibition (GI)” value [6] was “Active”.
